Experimental findings from PMC8333620, “Novel Tl(III) complexes containing pyridine-2,6-dicarboxylate derivatives with selective anticancer activity through inducing mitochondria-mediated apoptosis in A375 cells” (Scientific Reports, 2021) are described below.

For data set [1], the system named is HFF (a human foreskin fibroblast) cell line. In words: MTT cytotoxicity assay, HFF. Type of data set: cell-based. The settings on record: MTT, 48 h; read-out: Cytotoxicity (IC50 ± SEM) against HFF. On the procedure:
(§1) In this study, A375 (a human melanoma), HT29 (a human colon adenocarcinoma), and HFF (a human foreskin fibroblast) cell lines were provided from the Pasteur Institute (Iran). […] 10 mM stock solutions of compounds were prepared in DMSO and diluted in a fresh medium for use. The final concentration of DMSO never exceeded 0.1% (v/v). […] Then the medium was replaced with the respective medium containing ligands or Tl(III) complexes at different concentrations and incubated for 48 h. 10 μL of MTT was added and the medium was removed after 4 h of incubation. Finally, the violet crystal was solubilized in 100 μL DMSO and the absorbance was measured at 570 nm. IC50 value was measured by the standard method. The evaluations were carried out in triplicate[21],[23].
A general note: Tetrazolium dyes change colour on reduction, which living cells bring about.

For data set [2], the system named is A375 cells. In words: Cellular uptake of Tl (ICP-MS), A375. Type of data set: cell-based, human. Particulars: 10 μM, 24 h. How it is done: A375 cells (1 × 10^7 cells) were treated with 10 μM C1–C3 and Tl(NO3)3.3H2O, respectively, for 24 h at 37 °C, 5% CO2, and 95% air. Cold PBS (phosphate buffer, pH = 7.4) was used for rinsing the cells three times after being collected. Cells were lysed in 1 M NaOH (1 mL) and diluted with 2% (v/v) HNO3 (5 mL) to determine whole-cell thallium content. The amount of thallium taken up by the cells was measured by ICP-MS. The instrument calibrates thallium using a standard solution containing 10, 50, 100, 500, and 1000 ppb thallium. This test was performed as explained on HFF cells treatment to C3[38].

The nature of data set [3]: Cyclic voltammetry of the complexes. Type of data set: physicochemical. Particulars: versus Ag/AgCl, KCl 0.1 M, GCE, scan rate 50 V/s. The source says:
The electrochemical behavior of the complexes and also their ligands was studied by the cyclic voltammograms in the potential range of + 1.5 to –1.5 V and a scan rate of 50 Vs^–1. […] Redox couples at E^0ˊ 0.109, –0.051, and 0.244 V were obtained for C1, C2, and C3, respectively. The electrochemical oxidation of all three complexes seems be a one-stage process which includes irreversible couples with EC = –0.363 V, EA = 0.472 V for C1, EC = –0.271 V, EA = 0.220 V for C2 and EC = –0.337 V, EA = 0.581 V for C3. The peaks can be interpreted according to the Tl(III)/Tl(I) redox system for complexes. […] Therefore, redox couples are related to only the metal centers in complexes[27],[28].
Figure 4 Cyclic voltammogram of complexes c = 4 × 10^–3 mol/dm^3 in H2O medium, KCl (0.1 M) at GCE, scan rate 50 V/s.
Pyridine-2,6-dicarboxylic acid, 4-hydroxy-pyridine-2,6-dicarboxylic acid, 2-aminobenzimidazole, 4-aminopyridine, and thallium(III) nitrate trihydrate were purchased from the commercial sources and were used as received. The solvents were distilled for all synthetic works. Melting points were obtained on an Electrothermal IA-9100 apparatus. The FT-IR spectra were recorded on a Bruker Vector 22 FT-IR spectrometer using KBr pellets. Electronic spectra were recorded on Specord 210, Analytik Jena spectrophotometer in the range of 200–900 nm at room temperature. The ^1HNMR spectra were obtained from Bruker Ultrashield 400 spectrometer. Microanalyses (C, H, N) were measured with a Perkin-Elmer 2004(II) elemental analyzer. Electrochemical experiments were performed using a µAUTOLAB modular electrochemical system (ECO Chemie, Utrecht, the Netherlands) equipped with a PGSTAT type III module driven by GPES software in conjunction with a conventional three-electrode system an Ag/AgCl/3 M KCl and platinum wire as reference and counter electrode respectively and a GC as the working electrode.

For data set [4], the system named is A375 cells. Put plainly: Cell cycle analysis (PI, flow cytometry), A375. In kind it is cell-based, human. Particulars: A375, IC50 concentrations, 24 h; with respect to untreated control cells. How it is done: A375 cells were seeded in 6-well plates with 1.5 × 10^6 cells /well and treated with the C1 and C3 at IC50 concentrations for 24 h. Cells were trypsinized, collected, and fixed in ice-cold 75% ethanol at − 20 °C overnight. After centrifugation, the fixed cells were rinsed with ice-cold phosphate-buffered saline (PBS) and resuspended in 0.5 mL of PBS containing 100 μg/mL DNase-free RNase A (Thermo Fisher Scientific Biosciences GmbH, St. Leon-Rot, Germany), 50 μg/mL propidium iodide (PI; Sigma Aldrich) in the dark for 30 min. The distribution of the cells in different phases of the cell cycle was determined using flow cytometry (Attune Nxt, Thermo Fisher Scientific-US) and FlowJo software v10.6.1 (https://www.flowjo.com/solutions/flowjo/downloads) was used to analyze the data. This test was performed as explained on HFF cells treatment to C3 (at the highest concentration)[62].
For orientation: A flow cytometer gives signals particle by particle.

Another data set concerns p53. In words: Western blot, p53 in A375 cells. In kind it is cell-based, human. The settings on record: A375, IC50 concentrations, 24 h. On the procedure:
(§2) After incubation with C1 and C3 at IC50 concentrations for 24 h, A375 cells were harvested and lysed in 150 μL of lysis buffer (149 μL RIPA and 1 μL PMSF), and then placed on ice for 15 min. Total proteins were extracted by centrifuging the cell sample at 10,000 rpm and 4 °C for 10 min. Then about 50 μg of purified proteins were mixed with an equal volume of electrophoresis sample buffer, and the mixture was heated for 10 min. Meanwhile, the equal protein content from the control cells was prepared in the same way. The cell sample (10 μL) was loaded onto 10% SDS-PAGE gels and then transferred onto a microporous polyvinylidene difluoride (PVDF) membrane. The membrane was blocked with 5% BSA in TBST buffer for more than 2 h. After the removal of TBST buffer, membranes were incubated with an appropriate dilution of specific primary antibodies in TBST overnight at 4 °C and then washed with TBST three times. The membranes were incubated with secondary antibodies for 1 h and washed with TBST. The immunoreactive signals were detected using an enhanced chemo-luminance kit (Pierce ECL Western Blotting Substrate) following the procedures given in the user manual[46],[63].
A general note: Immunoblotting shows a protein as a band on a membrane.

In another data set the test system is procaspase-9. Put plainly: Western blot, procaspase-9 in A375 cells. In kind it is cell-based, human. The settings on record: A375, IC50 concentrations, 24 h, densitometry. How it is done:
as §2

The test system of data set [5] is A375 (a human melanoma) cell line. Put plainly: MTT cytotoxicity assay, A375. Type of data set: cell-based. The settings on record: MTT, 48 h. How it is done:
as §1

For the substance (4-apyH)[Tl(pydc)(pydcH)2]0.5H2O [C3], the figures for the IC50 in data set [1] and in data set [5] (read-out: Cytotoxicity (IC50 ± SEM) against A375) were > 500 µM and 7.23 ± 0.93 µM, respectively. Besides, the “permeation in A375 cells relative to normal (HFF) cells” value in the data set on A375 cells [2] is given as “almost two times more than normal cells”. Also, the “formal potential E0'” value in data set [3] (4 × 10^–3 mol/dm^3 in H2O) worked out at 0.244 V. Besides, in data set [3] (H2O), the “EA (anodic peak potential)” value turned out to be 0.581 V. Also, the “EC (cathodic peak potential)” value in data set [3] (H2O) is given as “–0.337 V”. Further, the “rise in the cellular population of the G2-M phase” value in the data set on A375 cells [4] was determined as 21.10%. For the same substance, in the data set with p53, the “level of p53” value is on record as “significantly enhanced”. In the data set on procaspase-9, the “procaspase-9 level compared to control” value stood at 110.97%. The “Viability inhibition, A375” value in data set [5] (concentration not given) turned out to be 69.62%.

For orientation: IC50 means the concentration that gives 50% inhibition.
